Results published in patent US10036034B2, “Sequences involved in plant yield and methods of using” (NUtech Ventures, priority 2014, dated 2018).
Read-outs that look alike come from different tables or passages of the source. Marks after values point to notes of the source that are not given here.

How the values were obtained:
P76 and TL seedlings = test: Effect of GA biosynthesis inhibitor Paclobutrazol (PAC) on lateral root density of wheat seedlings; type: in vivo; conditions: for Lateral Root Density / Number of Lateral Roots / Primary Root Length: 6 d old seedlings
Source text: (§1) For the early seedling stage root screening we used the cigar roll method (Zhu et al., 2006, TAG, 113:1-10). Similar sized seeds were germinated in a petri dish with moist paper towel for three days in the dark at 22-2S° C. Three seedlings per genotype were placed between two sheets of germination paper and rolled vertically. Three batches of 10 cigar rolls, totaling 30 plants per genotype were soaked in tap water and placed vertically in 1 L beaker filled with SO mL of water. Seedlings were grown in a controlled environment using a Percival Intellus Control System incubator (Model: I36VLC8) set at 25/27° C., 11.5/12.5 h day/night, 50/70% relative humidity and illumination of 80 μmols m^−2 sec^−1 during the duration of the experiments (Percival Scientific, Inc., Iowa). Water was added to each beaker twice daily to maintain the volume of 50 ml. All measurements were carried until 6 days after germination. Measurements after Day 6 can potentially be affected by limiting seed resources that drive seedling growth. For gene expression experiments, seedlings were harvested at 2, 4 and 6 days after germination. Root tissue samples were collected and snap frozen. It was hypothesized that the differences in biomass and yield between the Agropyron 7DL lines and the corresponding parental genotypes could be due to increased investment in root production, thus increasing acquisition of water and nutrients from the soil. We used a parent line, Pavon76 (P76), the 1-96-1 translocation line (TL), and a negative control (NC) for the translocation event for these experiments (FIG. 1). The total number of lateral roots (>1 mm) on the primary root axis were counted, and lateral root density was calculated by dividing the number of lateral roots on the primary root axis by the primary root length. Statistical significance was determined using a one-way ANOVA using Tukeys method. Transcriptomic comparison of the TL line and P76 indicated the differential regulation of several gibberellic acid associated genes (GSE42214; Table 8). Therefore, we tested the role of GA in lateral root regulation by treating TL and P76 seedlings with 104 GA3 in WW and LW conditions. […] Given the positive impact of exogenous GA on lateral roots, we measured the endogenous GA level in 6 d seedling roots. GA1 decreased in P76 in LW compared to WW (FIG. 13a). […] Higher GA levels in TL than P76 in LW is likely associated with its ability to maintain lateral root growth in LW. Auxin, which promotes lateral root growth, was not deficient in P76 relative to TL in LW, further supporting a GA-dependent mechanism for maintaining lateral root growth in TL (FIG. 21) (Orman-Ligeza et al., 2013, Trends Plant Sci., 18:459-67; Lavenus et al, 2013, Trends Plant Sci., 18:450-8).

LRD7Ag = test: qRT-PCR of LRD7Ag root transcript in GA pretreated TL seedlings; type: in vivo, wheat; conditions: GA pretreated TL seedlings in LW
Source text: FIG. 13 is data showing that gibberellins (GA) regulate lateral root formation in wheat. Panel (a) is a graph showing GA1 levels in P76 and TL roots in WW and LW conditions (mean±sd, n=30). “a” represents differences between WW and LW for a genotype and “b” represents significant genotypic differences under LW (p<0.05). Panel (b) is a graph showing expression of Agropyron allele of LRD7 (LRD7Ag) in the TL line in WW and LW conditions, with and without GA3 treatment. Transcript abundance was measured relative to WW, non-GA3 treated sample (mean±sd, n=3). “a” represents significant differences between WW and LW for roots with GA3 and no GA3 treatment, “b” represents a significant difference in response to GA treatment (p<0.05). […] Expression values were obtained relative to WW, non-GA3 treated sample as control (mean±sd, n=3). “a” represents significant differences between WW and LW for a genotype and “b” represents significant genotypic differences in LW conditions (p<0.05). […]
(§2) We used SuperScript VILO to synthesize cDNA for semi- and real-time quantitative PCR (qPCR) (Invitrogen Corp., Carlsbad, Calif.). […] Crossing point value (Cp or Ct), which was the point at which the fluorescence crosses the threshold, and melting curve analyses were obtained using the LightCycler Roche 480 Software v1.5. […]

LRD7Ta = test: qRT-PCR of LRD7Ta expression in GA pretreated P76 roots; type: in vivo, wheat
Source text: FIG. 13 is data showing that gibberellins (GA) regulate lateral root formation in wheat. Panel (a) is a graph showing GA1 levels in P76 and TL roots in WW and LW conditions (mean±sd, n=30). “a” represents differences between WW and LW for a genotype and “b” represents significant genotypic differences under LW (p<0.05). Panel (b) is a graph showing expression of Agropyron allele of LRD7 (LRD7Ag) in the TL line in WW and LW conditions, with and without GA3 treatment. Transcript abundance was measured relative to WW, non-GA3 treated sample (mean±sd, n=3). “a” represents significant differences between WW and LW for roots with GA3 and no GA3 treatment, “b” represents a significant difference in response to GA treatment (p<0.05). […] “a” represents significant differences between WW and LW for a genotype and “b” represents significant genotypic differences in LW conditions (p<0.05). […] The “a” represents significance between WW and LW and “b” indicates significance between CBO37 and RNAi or OE events or between P76 and TL under LW (p<0.05).
as §2

TL and P76 seedlings = test: Effect of Gibberellin A3 (GA3) on lateral root density of wheat seedlings in WW and LW conditions; type: in vivo; conditions: for Lateral Root (PR) / Lateral Root Density / Primary Root Length: mean ± s.d., n = 30
Source text: as §1

CC(C)(C)[C@@H](O)[C@@H](Cc1ccc(Cl)cc1)n1cncn1 (racemic) [PAC, Paclobutrazol]
Lateral Root Density (P76 and TL seedlings; P76, LW (+PAC)): 0.22 ± 0.1^b cm−1
Number of Lateral Roots (P76 and TL seedlings; P76, LW (+PAC)): 5 ± 2^b
Primary Root Length (P76 and TL seedlings; P76, LW (+PAC)): 24.2 ± 2.9 cm
Lateral Root Density (P76 and TL seedlings; P76, WW (+PAC)): 0.45 ± 0.1^b cm−1
Number of Lateral Roots (P76 and TL seedlings; P76, WW (+PAC)): 11 ± 2^b
Primary Root Length (P76 and TL seedlings; P76, WW (+PAC)): 25.3 ± 3.0 cm
Lateral Root Density (P76 and TL seedlings; TL, LW (+PAC)): 0.41 ± 0.1^b cm−1
Number of Lateral Roots (P76 and TL seedlings; TL, LW (+PAC)): 10 ± 1^b
Primary Root Length (P76 and TL seedlings; TL, LW (+PAC)): 23.9 ± 2.6 cm
Lateral Root Density (P76 and TL seedlings; TL, WW (+PAC)): 0.49 ± 0.1^b cm−1
Number of Lateral Roots (P76 and TL seedlings; TL, WW (+PAC)): 11 ± 2^b
Primary Root Length (P76 and TL seedlings; TL, WW (+PAC)): 22.7 ± 2.4 cm
Effect on lateral root formation (P76 and TL seedlings; both P76 and TL): specifically suppressed lateral root formation

C=C1C[C@]23C[C@@]1(O)CC[C@H]2[C@@]12C=C[C@H](O)[C@@](C)(C(=O)O1)[C@H]2[C@@H]3C(=O)O [GA3, Gibberellin A3]
Repression of root transcript abundance of LRD7Ag relative to untreated WW control (LRD7Ag): 5 fold
LRD7Ta expression in roots compared to LW (no GA) roots (LRD7Ta): down-regulated
LRD7Ta expression in roots compared to LW (no GA) roots (LRD7Ta; listed as GA): decreased LRD7Ta expression
Effect of GA treatment on lateral root number and density (TL and P76 seedlings; P76, LW): restored lateral root number and density to WW levels
Lateral Root (PR) (TL and P76 seedlings; P76, LW (+GA3)): 23 ± 3^b
Lateral Root Density (TL and P76 seedlings; P76, LW (+GA3)): 0.96 ± 0.1^b cm^−1
Primary Root Length (TL and P76 seedlings; P76, LW (+GA3)): 23.9 ± 2.2^b cm
Lateral Root (PR) (TL and P76 seedlings; P76, WW (+GA3)): 24 ± 4
Lateral Root Density (TL and P76 seedlings; P76, WW (+GA3)): 0.96 ± 0.1 cm⁻¹
Primary Root Length (TL and P76 seedlings; P76, WW (+GA3)): 25.5 ± 2.8 cm
Effect of GA treatment on roots (TL and P76 seedlings; P76 and TL, WW conditions): had no effect on roots of either genotype
Effect of GA treatment on lateral root number and density (TL and P76 seedlings; TL, LW): increased the TL lateral root number and density under LW to above the untreated values
Lateral Root (PR) (TL and P76 seedlings; TL, LW (+GA3)): 38 ± 4^b
Lateral Root Density (TL and P76 seedlings; TL, LW (+GA3)): 1.44 ± 0.1^b cm^−1
Primary Root Length (TL and P76 seedlings; TL, LW (+GA3)): 26.4 ± 2.4 cm
Lateral Root (PR) (TL and P76 seedlings; TL, WW (+GA3)): 24 ± 5
Lateral Root Density (TL and P76 seedlings; TL, WW (+GA3)): 0.89 ± 0.2 cm⁻¹
